Data from ChEMBL document CHEMBL5518182, “Discovery and development of BI 1265162, an ENaC inhibitor for the treatment of cystic fibrosis” (Eur J Med Chem, 2024).

Legend:
[1] = Inhibition of ENaC in mouse M1 cells upto 10 uM by chamber assay; type: cell-based; conditions: m1 cell
[2] = Permeability across basal to apical side in human Calu-3 cells at 0.1 to 300 uM measured upto 2 hrs by HPLC-MS/MS analysis; type: ADME, cell-based; conditions: dose 0.1-300 µM, read-out: permeability
M1 cell = assay: Inhibition of ENaC-mediated water resorption in mouse M1 cells at 3 uM by radiometric dilution assay relative to control; type: cell-based
Lung [3] = assay: Inhibition of lung water resorption in Wistar rat at 30 ug/kg, IT(Intratracheal) incubated for 3 hrs relative to control; type: functional
Lung [4] = assay: Inhibition of lung water resorption in Wistar rat at 3 ug/kg, IT(Intratracheal) incubated for 3 hrs relative to control; type: functional
[5] = Solubility of compound at pH 5; type: physicochemical; conditions: buffer

For `CCn1c(CNC(=O)c2nc(Cl)cnc2N)[n+](CC)c2cc(OCC(=O)OC)ccc21`, the IC50 [1] was 0.7 nM, the Papp B→A at 2 h, up to 300 µM [2] was 0.25 ×10⁻⁶ cm/s and the inhibition (M1 cell) was 65%.

Compound `CC[n+]1c(CNC(=O)c2nc(Cl)c(N)nc2N)n(CC(=O)O)c2ccc(OC)cc21` has an IC50 [1] of 6.5 nM.

`CCn1c(CNC(=O)c2nc(Cl)cnc2N)[n+](CC)c2cc(C(=O)NCCCN)ccc21` gave an inhibition in vivo at 0.03 mg/kg (Lung [3]) of 24%, an IC50 [1] of 3.6 nM and an inhibition (M1 cell) of 83%. It also gave an inhibition in vivo at 0.003 mg/kg (Lung [4]) of 25%.

For `CCn1c(CNC(=O)c2nc(Cl)cnc2N)[n+](CC)c2cc(C(=O)N3CCC(N)CC3)ccc21`, the inhibition in vivo at 0.03 mg/kg (Lung [3]) was 26%, the IC50 [1] was 5 nM and the Papp B→A at 2 h, up to 300 µM [2] was 0.18 ×10⁻⁶ cm/s. It also gave a solubility [5] greater than 2%, an inhibition (M1 cell) of 84% and an inhibition in vivo at 0.003 mg/kg (Lung [4]) of 13%.

`CCOP(=O)([O-])CCCOc1ccc2c(c1)[n+](CC)c(CNC(=O)c1nc(Cl)c(N)nc1N)n2CC1CCOCC1` gave an IC50 [1] of 8.3 nM, a Papp B→A at 2 h, up to 300 µM [2] of 0.17 ×10⁻⁶ cm/s and a solubility [5] of less than 5%. It also gave an inhibition (M1 cell) of 81%.

Work on `CCn1c(CNC(=O)c2nc(Cl)cnc2N)[n+](CC)c2ccc(C(=O)NCCCN)cc21` yielded a Papp B→A at 2 h, up to 300 µM [2] of 0.22 ×10⁻⁶ cm/s and a solubility [5] greater than 2%.

With `CCn1c(CNC(=O)c2ncc(C)nc2N)[n+](CC)c2ccccc21` the IC50 [1] was 1670 nM.

Compound `CCn1c(CNC(=O)c2nc(Cl)cnc2N)[n+](CC)c2cc(C(=O)OC)ccc21` has an IC50 [1] of 3 nM.

For `Cn1c(CNC(=O)c2nc(Cl)c(N)nc2N)[n+](C)c2ccccc21`, the IC50 [1] was 19 nM.

`CCn1c(CNC(=O)c2cc(Cl)cnc2N)[n+](CC)c2ccccc21` gave an IC50 [1] of 50 nM.

With `CCn1c(CNC(=O)c2cc(Cl)ccc2N)[n+](CC)c2ccccc21` the IC50 [1] was 19 nM.

With `CCn1c(CNC(=O)c2nc(Cl)c(N)nc2N)[n+](CC)c2cc(OC)ccc21` the IC50 [1] was 0.3 nM.

Compound `CC[n+]1c(CNC(=O)c2nc(Cl)c(N)nc2N)[nH]c2ccc(OC)cc21` has an IC50 [1] of 26 nM.

Compound `CCOP(=O)([O-])CCCOc1ccc2c(c1)[n+](CC)c(CNC(=O)c1nc(Cl)c(N)nc1N)n2CCCC#N` has an inhibition in vivo at 0.03 mg/kg (Lung [3]) of 16%, an IC50 [1] of 19 nM and a Papp B→A at 2 h, up to 300 µM [2] of 0.22 ×10⁻⁶ cm/s. It also gave a solubility [5] greater than 5%, an inhibition (M1 cell) of 83% and an inhibition in vivo at 0.003 mg/kg (Lung [4]) of 6%.

For `CCn1c(CNC(=O)c2nccnc2N)[n+](CC)c2ccccc21`, the IC50 [1] was 169 nM.

Compound `CC[n+]1c(CNC(=O)c2nc(Cl)c(N)nc2N)n(CC2CCOCC2)c2ccc(OCC(=O)N(Cc3nc(C)ccc3O)C[C@H](C)O)cc21` has an IC50 [1] of 2.5 nM, a Papp B→A at 2 h, up to 300 µM [2] of 0.2 ×10⁻⁶ cm/s and a solubility [5] of less than 2%. It also gave an inhibition (M1 cell) of 63%.

Compound `CCn1c(CNC(=O)c2nc(Cl)cnc2N)[n+](CC)c2cc(C(=O)O)ccc21` has an IC50 [1] of 29 nM and a Papp B→A at 2 h, up to 300 µM [2] of 0.17 ×10⁻⁶ cm/s.

Compound `CCn1c(CNC(=O)c2nc(Cl)cnc2N)[n+](CC)c2cc(OCC(=O)O)ccc21` has an IC50 [1] of 16 nM, a Papp B→A at 2 h, up to 300 µM [2] of 0.22 ×10⁻⁶ cm/s and an inhibition (M1 cell) of 70%.

With `CCn1c(CNC(=O)c2nc(Cl)c(N)nc2N)nc2cc(OC)ccc21` the IC50 [1] was 168 nM.

For `CCn1c(CNC(=O)c2nc(Cl)c(NC)nc2N)[n+](CC)c2ccccc21`, the IC50 [1] was 305 nM.

`CC[n+]1c(CNC(=O)c2nc(Cl)cnc2N)n(CCOCCOCCO)c2ccc(OC)cc21` showed an IC50 [1] of 3 nM.

`CCn1c(CNC(=O)c2nc(Cl)c(N)nc2N)[n+](CC)c2ccccc21` showed an IC50 [1] of 0.2 nM.

`CCn1c(CNC(=O)c2nc(Cl)cnc2N)[n+](CC)c2ccccc21` gave an IC50 [1] of 0.7 nM.

Compound `Cn1c(CNC(=O)c2nc(Cl)cnc2N)[n+](C)c2ccccc21` has an IC50 [1] of 81 nM.

`CCn1c(CNC(=O)c2nc(Cl)c(N)nc2N)[n+](CCO)c2cc(OC)ccc21` gave an IC50 [1] of 0.5 nM.

`CCn1c(CNC(=O)c2nc(Cl)c(N)nc2N)[n+](CCCO)c2cc(OC)ccc21` showed an IC50 [1] of 0.3 nM.

`CCn1c(CNC(=O)c2nc(Cl)c(N)nc2N)[n+](CCO)c2cc(OCC(=O)N3CCN(C(C)=O)CC3)ccc21` showed an IC50 [1] of 3.1 nM, a Papp B→A at 2 h, up to 300 µM [2] of 0.31 ×10⁻⁶ cm/s and a solubility [5] of less than 2%. For the same compound, the inhibition (M1 cell) was 92%.

Compound `CCn1c(CNC(=O)c2nc(Br)cnc2N)[n+](CC)c2ccccc21` has an IC50 [1] of 0.7 nM.

Compound `CC[n+]1c(CNC(=O)c2nc(Cl)c(N)nc2N)n(CCOCCOCCO)c2ccc(OC)cc21` has an IC50 [1] of 0.5 nM.

Compound `CC[n+]1c(CNC(=O)c2nc(Cl)c(N)nc2N)n(CC(=O)OC)c2ccc(OC)cc21` has an IC50 [1] of 0.5 nM.
